Experiments:
5XFAD mice = test: 6E10 immunohistochemical staining of amyloid plaques in 5XFAD mice after oral administration; assay type: in vivo, mouse; conditions: 50 mg/kg/day via drinking water, 5 weeks, 4.5-month-old female 5XFAD mice, vs vehicle
Protocol: To test the in vivo efficacy of YIAD001 and YIAD002, female 5XFAD mice (n = 25) and female wildtype mice (n = 7) were assessed at the age of 4.5 months. YIAD compounds were dissolved in DMSO and diluted in drinking water to a final concentration of 50 mg/kg/day (5% DMSO, 5% Tween) for oral administration. The three compounds, YIAD001, YIAD002, and YIAD003, were freely administered via drinking water to 4.5-month-old 5XFAD mice (n = 6 for each group) for 5 weeks. As a control, 5% DMSO, 5% Tween in drinking water was provided ad libitum to littermate 5XFAD mice (n = 7) and wildtype mice (n = 7) for 5 weeks.
After the administration period, the mice were deeply anaesthetized with 4% avertin through intraperitoneal injection and transcardially perfused with 0.9% saline. Subsequently, the mice were sacrificed for brain excision. Each collected brain was divided through the mid-sagittal section; the hippocampal and cortical regions were dissected from one half and stored at −80°C for subsequent brain lysates, while the other half was immersed in 4% paraformaldehyde (pH 7.4) for 24 h and 30% sucrose for 48 h at 4°C and subsequently deep-froze at −80°C for immunohistochemistry.
Coronal hippocampal sections of 5XFAD mice brains (35 μm) were cut with a Cryostat (Leica, CM1860) and mounted onto glass slides. Antigen retrieval was performed by submerging slides in 1% SDS and unspecific binding was blocked through incubation in 20% horse serum in PBS for 1 h at RT. Aβ deposits were visualized through immunolabeling by anti-6E10 antibody (1:200 in PBS with 5% horse serum, Biolegend 803003) and detection by fluorescent secondary antibody (1:200 in PBS, IgG Alexa 488). Brain sections were additionally stained with Hoechst 33342. Fluorescent images of the brain sections were taken on a Leica DM2500 fluorescence microscope. Amyloid plaques were quantified using Image-J software (NIH).

Aβ(1–42) aggregates [1] = biological target: T1, Aβ(1–42) aggregates (Homo sapiens, UniProt P05067); test: ThT fluorescence Aβ(1–42) disaggregation assay; assay type: biochemical; conditions: for Decrease of fibrillar Aβ(1–42) aggregates (ThT fluorescence): Aβ(1–42) 25 μM pre-aggregated 37°C 3 days, compound added for additional 3 days, concentration of the printed value not stated; for EC50: pre-aggregated Aβ(1–42) 25 μM, 3 + 3 days, 37°C
T1 construct: made in house; host or cells: chemical synthesis (Fmoc solid phase peptide synthesis)
Protocol: (§1) ThT fluorescence was used to assess the in vitro inhibition of Aβ(1–42) and disaggregation of Aβ(1–42), Aβ(1–40), Aβ(pE3-42), recombinant tau K18, and tau repeats R1, R2, R3, R4 by YIAD compounds. In house synthetic Aβ(1–42) was dissolved in DMSO (1 mM, 100% DMSO) and diluted to 20-fold in deionized water to make 50 μM Aβ(1–42) stocks (5% DMSO). YIAD compounds were first dissolved in DMSO (100 mM, 100% DMSO) and serially diluted with deionized water to make YIAD stocks with concentrations of 1, 10, 100, and 1000 μM (10% DMSO). For the Aβ(1–42) inhibition assay, monomeric Aβ(1–42) stocks and YIAD stocks were co-incubated at 37°C for 3 days. For Aβ(1–42) disaggregation assay, monomeric Aβ(1–42) stocks were preincubated at 37°C for three days to form Aβ(1–42) aggregates, and subsequently, YIAD stocks were added for an additional 3 days. For Aβ(1-40) disaggregation assays, Aβ(1–40) (50 μM, 5% DMSO) was preincubated at 37°C for 3 days to induce aggregation, and co-incubated with YIAD001 and YIAD002 for an additional 3 days. For Aβ(pE3-42) disaggregation assays, in house synthetic Aβ(pE3-42) (50 μM, 5% DMSO) was preincubated at 37°C for 1 day and co-incubated with YIAD002 for an additional 3 days. For tau K18 disaggregation assay, recombinant tau K18 fragments (35 μM) were dissolved in PBS with 0.1 mg/mL of heparin and 100 μM of DTT, then pre-aggregated at 37°C for 3 days. Then, YIAD stocks were added to aggregated K18 fragments for an additional 3 days. For tau repeat disaggregation assays, tau repeats (R1, R2, R3, R4) (35 μM) were dissolved in PBS with 0.1 mg/mL of heparin and 100 μM of DTT, then pre-aggregated at 37°C for 1 day. Then, YIAD002 was added to aggregated repeats for an additional 3 days. Prior to fluorescence intensity measurement, ThT solution (5 μM) was prepared by dissolving ThT, purchased from Sigma-Aldrich (MO, USA) in 50 mM glycine buffer (pH 8.5). To quantify the effect of inhibition and disaggregation, 25 μL of all samples and 75 μL of ThT solution were loaded into a half-area 96-well black plate in triplicate.

[2] = biological target: T2, recombinant tau K18 aggregates (Homo sapiens, UniProt P10636); test: ThT fluorescence tau K18 disaggregation assay; assay type: biochemical; conditions: K18 35 μM pre-aggregated 3 days, 50 and 500 μM compound for additional 3 days; concentration of the printed value not stated
T2 construct: Recombinant tau K18 fragments, […]; made in house; host or cells: Escherichia coli BL21 (DE3)
Protocol: as §1, with “For Aβ(pE3-42) disaggregation assays, in house synthetic Aβ(pE3-42) (50 μM, 5% DMSO) was preincubated at 37°C for 1 day and co-incubated with YIAD002 for an additional 3 days. For tau K18 disaggregation assay, recombinant tau K18 fragments (35 μM) were dissolved in PBS with 0.1 mg/mL of heparin and 100 μM of DTT, then pre-aggregated at 37°C for 3 days. Then, YIAD stocks were added to aggregated K18 fragments for an additional 3 days. For tau repeat disaggregation assays, tau repeats (R1, R2, R3, R4) (35 μM) were dissolved in PBS with 0.1 mg/mL of heparin and 100 μM of DTT, then pre-aggregated at 37°C for 1 day. Then, YIAD002 was added to aggregated repeats for an additional 3 days.” left out

Aβ(1–42) aggregates [3] = biological target: T1, Aβ(1–42) aggregates; test: In vitro dot blot assay with oligomer-specific antibody A11; assay type: biochemical; conditions: Aβ(1–42) disaggregation samples, Fig. S1
Protocol: To analyze total and oligomeric amyloid levels, protein samples (12 μg in 2 μL) and prepared in vitro disaggregation assay samples (2 μL) were directly blotted on nitrocellulose membranes. After blocking with 5% skim milk in TBS-T, the membranes were probed with anti-6E10 antibody (1:1,000, Biolegend 803003) and anti-A11 antibody (1:2000, Invitrogen AHB0052) at 4°C overnight. HRP-conjugated goat anti-mouse antibody (1:10,000, Bethyl Laboratories A90-116P) and anti-rabbit secondary antibody (1:10,000, Bethyl Laboratories A120-101P) were used for 6E10 and A11, respectively. Proteins were detected using an ECL kit (Thermo Fisher Scientific, USA). Membranes were washed with TBS-T in between steps, three times for 10 min.

Aβ(1–40) aggregates = biological target: T3, Aβ(1–40) aggregates (Homo sapiens, UniProt P05067); test: ThT fluorescence Aβ(1–40) disaggregation assay; assay type: biochemical; conditions: 500 μM compound, Aβ(1–40) 25 μM pre-aggregated 3 days, co-incubated additional 3 days
T3 construct: Aβ(1–40), […]; […]; made in house; host or cells: chemical synthesis (Fmoc solid phase peptide synthesis)
Protocol: as §1, with “For Aβ(pE3-42) disaggregation assays, in house synthetic Aβ(pE3-42) (50 μM, 5% DMSO) was preincubated at 37°C for 1 day and co-incubated with YIAD002 for an additional 3 days. For tau K18 disaggregation assay, recombinant tau K18 fragments (35 μM) were dissolved in PBS with 0.1 mg/mL of heparin and 100 μM of DTT, then pre-aggregated at 37°C for 3 days. Then, YIAD stocks were added to aggregated K18 fragments for an additional 3 days. For tau repeat disaggregation assays, tau repeats (R1, R2, R3, R4) (35 μM) were dissolved in PBS with 0.1 mg/mL of heparin and 100 μM of DTT, then pre-aggregated at 37°C for 1 day. Then, YIAD002 was added to aggregated repeats for an additional 3 days.” left out

Aβ(1–42) = biological target: T4, Aβ(1–42) (Homo sapiens, UniProt P05067); test: ThT fluorescence Aβ(1–42) aggregation inhibition assay; assay type: biochemical; conditions: compounds at 0.5, 5, 50, 500 μM co-incubated with monomeric Aβ(1–42) 25 μM, 37°C, 3 days; concentration of the printed value not stated
T4 construct: Synthesized monomeric Aβ(1–42), […]; […]; IA; made in house; host or cells: chemical synthesis (Fmoc solid phase peptide synthesis)
Protocol: as §1

T1 sequence (P05067 672-713 limits assumed): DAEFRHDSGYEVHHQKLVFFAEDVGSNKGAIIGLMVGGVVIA
T3 sequence (P05067 672-711): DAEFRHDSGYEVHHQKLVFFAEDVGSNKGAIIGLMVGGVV
T4 sequence (P05067 672-713 limits assumed): as the sequence (P05067 672-713 limits assumed) above
T2 sequence (P10636 561-689): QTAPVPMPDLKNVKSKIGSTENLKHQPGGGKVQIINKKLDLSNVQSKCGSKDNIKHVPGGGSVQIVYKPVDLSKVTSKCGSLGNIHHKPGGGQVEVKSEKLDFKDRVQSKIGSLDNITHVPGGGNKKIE

Row | Compound | Number of 6E10-stained plaques (5XFAD mice) | Decrease of fibrillar Aβ(1–42) aggregates (ThT fluorescence) (Aβ(1–42) aggregates [1]) [%] | EC50 (Aβ(1–42) aggregates [1]) [µM] | Reduction of K18 aggregates (disaggregation, ThT) [2] [%] | A11-detected amyloid oligomers, in vitro disaggregation (Aβ(1–42) aggregates [3]) | Decrease of Aβ(1–40) aggregates (ThT fluorescence) (Aβ(1–40) aggregates) [%] | Inhibition of Aβ(1–42) fibrillation (ThT fluorescence) (Aβ(1–42)) [%] | Plaque area (5XFAD mice)
1 | CCC(C)(C)c1ccc(OCC(O)CN2CCOCC2)c(C(C)(C)CC)c1.Cl (stereo not drawn) [YIAD001, 4-(3-(2,4-Di-tert-pentylphenoxy)-2-hydroxypropyl)morpholin-4-ium chloride] | significantly reduced | 82.61 | 91.8 | 18.06 | dissociate Aβ(1–42) aggregates | 58.98 | 82.55 | 
2 | CCC(C)(C)c1ccc(OCC(O)CN2CCCC2)c(C(C)(C)CC)c1.Cl (stereo not drawn) [YIAD002, 1-(3-(2,4-Di-tert-pentylphenoxy)-2-hydroxypropyl)pyrrolidin-1-ium chloride] | significantly reduced | 99.94 | 16.9 | 58.96 | dissociate Aβ(1–42) aggregates | 83.35 | 98.15 | significant decrease

From PMC9706920, “Aryloxypropanolamine targets amyloid aggregates and reverses Alzheimer-like phenotypes in Alzheimer mouse models” (Alzheimer's Research & Therapy, 2022)
